Values quoted from earlier work, collected in patent US20250261683A1, “ORAL COMPOSITION COMPRISING ENCAPSULATED PH ADJUSTING AGENT” (NICOVENTURES TRADING LIMITED, priority 2022, published 2025).

What was measured:
[1] = descriptive statement
[2] = descriptive statement; isomerizes to trans-bixin

| solubility in fats and alcohols [1] | solubility in water [1] | chemical stability when isolated [2] | SMILES |
| --- | --- | --- | --- |
| soluble | insoluble | chemically unstable | COC(=O)/C=C/C(C)=C\C=C\C(C)=C\C=C\C=C(C)\C=C\C=C(C)\C=C\C(=O)O [bixin, (2E,4E,6E,8E,10E,12E,14E,16Z,18E)-20-methoxy-4,8,13,17-tetramethyl-20-oxoicosa-2,4,6,8,10,12,14,16,18-nonaenoic acid] |
|  | water-soluble |  | CC(/C=C/C=C(C)/C=C/C(=O)O)=C\C=C\C=C(C)\C=C\C=C(C)\C=C\C(=O)O (stereo in doubt) [norbixin, (2E,4E,6E,8E,10E,12E,14E,16E,18E)-4,8,13,17-tetramethylicosa-2,4,6,8,10,12, 14,16, 18-nonaenedioic acid] |
